Bridge positions count the residues as written; N and C are the ends. Square brackets hold non-standard residues; d marks the D form. Peptide text beside a SMILES is read from it. * marks the point of attachment. Bip = N[C@@H](Cc1ccc(-c2ccccc2)cc1)C(=O)O; Phe(3-Me) = Cc1cccc(C[C@H](N)C(=O)O)c1; Cha = N[C@@H](CC1CCCCC1)C(=O)O; Cit = NC(=O)NCCC[C@H](N)C(=O)O; Carboxymethyl = O=C(O)C*; Orn = NCCC[C@H](N)C(=O)O; Aun = NCCCCCCCCCCC(=O)O; Dab = NCC[C@H](N)C(=O)O; Dap = NC[C@H](N)C(=O)O
Target: T1, PD-1/PD-L1 interaction (PE-labeled human PD-L1-Ig binding to Jurkat cell line over-expressing human PD-1) (Homo sapiens, UniProt Q15116)
T1 construct: expressed in transfected cells; host or cells: Jurkat
T1 sequence (Q15116 25-288): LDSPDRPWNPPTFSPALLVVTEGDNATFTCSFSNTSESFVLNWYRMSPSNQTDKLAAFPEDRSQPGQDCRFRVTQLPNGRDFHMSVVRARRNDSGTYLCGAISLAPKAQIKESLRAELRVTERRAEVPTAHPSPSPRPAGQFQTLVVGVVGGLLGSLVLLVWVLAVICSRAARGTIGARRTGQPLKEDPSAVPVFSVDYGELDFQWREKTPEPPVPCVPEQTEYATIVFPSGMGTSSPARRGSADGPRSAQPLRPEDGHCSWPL
Assay: Jurkat-PD-1 Cell Binding High-Content Screening Assay (CBA)
Type: cell-based
Conditions: Jurkat cell line over-expressing human PD-1; PE-labeled PD-L1-Ig 20 nM final; read-out: Jurkat hPD1-PDL1 IC50
Outline: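 Read-out is high-content imaging of cell-bound phycoerythrin-tagged PD-L1-Ig on fixed, Hoechst-counterstained Jurkat cells that over-express human PD-1. Compound exposure lasts 2 h at 37° C before the labeled ligand (20 nM final) is added for a further hour.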

Row | Structure (SMILES) | IC50
1 | Cc1cccc(C[C@@H]2NC(=O)[C@H](CC(=O)O)NC(=O)[C@H](Cc3ccc(OCC(=O)O)cc3)NC(=O)[C@H](CN)NC(=O)CSC[C@@H](C(=O)N[C@@H](CCC(=O)O)C(=O)NCCCCCCCCCCC(=O)O)NC(=O)[C@H]([C@@H](C)O)NC(=O)[C@H](C(C)C)NC(=O)[C@H](CC3CCCCC3)NC(=O)[C@H](CCN)NC(=O)[C@@H](CC(C)C)NC(=O)[C@H](CCCN)NC(=O)[C@H](CCC(=O)O)NC(=O)[C@H](Cc3ccc(-c4ccccc4)cc3)NC(=O)[C@H](C(C)C)NC2=O)c1 [Compound 1045] ({CH2CO}-[Dap]Y(Carboxymethyl)D[Phe(3-Me)]V[Bip]E[Orn][dL][Dab][Cha]VTCE[Aun]-OH; thioether N-14) | 11 nM
2 | Cc1cccc(C[C@@H]2NC(=O)[C@H](CC(=O)O)NC(=O)[C@H](Cc3ccc(OCC(=O)O)cc3)NC(=O)[C@H](CN)NC(=O)CSC[C@@H](C(=O)N[C@@H](C)C(=O)N[C@@H](CCC(=O)O)C(=O)NCC(=O)NCCCCCCCCCCC(=O)O)NC(=O)[C@H]([C@@H](C)O)NC(=O)[C@H](C(C)C)NC(=O)[C@H](CC3CCCCC3)NC(=O)[C@H](CCN)NC(=O)[C@@H](CC(C)C)NC(=O)[C@H](CCCN)NC(=O)[C@H](CCC(=O)O)NC(=O)[C@H](Cc3ccc(-c4ccccc4)cc3)NC(=O)[C@H](C(C)C)NC2=O)c1 [Compound 1046] ({CH2CO}-[Dap]Y(Carboxymethyl)D[Phe(3-Me)]V[Bip]E[Orn][dL][Dab][Cha]VTCAEG[Aun]-OH; thioether N-14) | 16.2 nM
3 | Cc1cccc(C[C@@H]2NC(=O)[C@H](CC(=O)O)NC(=O)[C@H](Cc3ccc(OCC(=O)O)cc3)NC(=O)[C@H](CN)NC(=O)CSC[C@@H](C(=O)N[C@@H](C)C(=O)N[C@@H](CC(=O)O)C(=O)NCC(=O)NCCCCCCCCCCC(=O)O)NC(=O)[C@H]([C@@H](C)O)NC(=O)[C@H](C(C)C)NC(=O)[C@H](CC3CCCCC3)NC(=O)[C@H](CCN)NC(=O)[C@@H](CC(C)C)NC(=O)[C@H](CCCN)NC(=O)[C@H](CCC(=O)O)NC(=O)[C@H](Cc3ccc(-c4ccccc4)cc3)NC(=O)[C@H](C(C)C)NC2=O)c1 [Compound 1047] ({CH2CO}-[Dap]Y(Carboxymethyl)D[Phe(3-Me)]V[Bip]E[Orn][dL][Dab][Cha]VTCADG[Aun]-OH; thioether N-14) | 13.2 nM
4 | Cc1cccc(C[C@@H]2NC(=O)[C@H](CC(=O)O)NC(=O)[C@H](Cc3ccc(OCC(=O)O)cc3)NC(=O)[C@H](CN)NC(=O)CSC[C@@H](C(=O)N[C@@H](C)C(=O)N[C@@H](CC(=O)O)C(=O)NCCCCCCCCCCC(=O)O)NC(=O)[C@H]([C@@H](C)O)NC(=O)[C@H](C(C)C)NC(=O)[C@H](CC3CCCCC3)NC(=O)[C@H](CCN)NC(=O)[C@@H](CC(C)C)NC(=O)[C@H](CCCN)NC(=O)[C@H](CCC(=O)O)NC(=O)[C@H](Cc3ccc(-c4ccccc4)cc3)NC(=O)[C@H](C(C)C)NC2=O)c1 [Compound 1049] ({CH2CO}-[Dap]Y(Carboxymethyl)D[Phe(3-Me)]V[Bip]E[Orn][dL][Dab][Cha]VTCAD[Aun]-OH; thioether N-14) | 15 nM
5 | Cc1cccc(C[C@@H]2NC(=O)[C@H](CC(=O)O)NC(=O)[C@H](Cc3ccc(OCC(=O)O)cc3)NC(=O)[C@H](Cc3ccc(OCC(=O)O)cc3)NC(=O)CSC[C@@H](C(=O)NCC(=O)N[C@@H](CCN)C(=O)NCC(=O)NCCCCCCCCCCC(=O)O)NC(=O)[C@H](CO)NC(=O)[C@H](C(C)C)NC(=O)[C@H](CC3CCCCC3)NC(=O)[C@H](CCN)NC(=O)[C@@H](CC(C)C)NC(=O)[C@H](CCCN)NC(=O)[C@H](C(C)C)NC(=O)[C@H](Cc3ccc(-c4ccccc4)cc3)NC(=O)[C@H](CC(C)C)NC2=O)c1 [Compound 1050] ({CH2CO}-Y(Carboxymethyl)Y(Carboxymethyl)D[Phe(3-Me)]L[Bip]V[Orn][dL][Dab][Cha]VSCG[Dab]G[Aun]-OH; thioether N-14) | 20.9 nM
6 | Cc1cccc(C[C@@H]2NC(=O)[C@H](CC(=O)O)NC(=O)[C@H](Cc3ccc(OCC(=O)O)cc3)NC(=O)[C@H](CN)NC(=O)CSC[C@@H](C(=O)N[C@@H](C)C(=O)N[C@@H](CCN)C(=O)NCC(=O)NCCCCCCCCCCC(=O)O)NC(=O)[C@H]([C@@H](C)O)NC(=O)[C@H](C(C)C)NC(=O)[C@H](CC3CCCCC3)NC(=O)[C@H](CCN)NC(=O)[C@@H](CC(C)C)NC(=O)[C@H](CCCN)NC(=O)[C@H](CCCNC(N)=O)NC(=O)[C@H](Cc3ccc(-c4ccccc4)cc3)NC(=O)[C@H](C(C)C)NC2=O)c1 [Compound 1051] ({CH2CO}-[Dap]Y(Carboxymethyl)D[Phe(3-Me)]V[Bip][Cit][Orn][dL][Dab][Cha]VTCA[Dab]G[Aun]-OH; thioether N-14) | 12.3 nM

Next, values leading:

Row | IC50 | Structure (SMILES)
7 | 6.1 nM | Cc1cccc(C[C@@H]2NC(=O)[C@H](CC(=O)O)NC(=O)[C@H](Cc3ccc(OCC(=O)O)cc3)NC(=O)[C@H](CN)NC(=O)CSC[C@@H](C(=O)N[C@@H](C)C(=O)N[C@@H](CCC(=O)O)C(=O)NCCCCCCCCCCC(=O)O)NC(=O)[C@H]([C@@H](C)O)NC(=O)[C@H](C(C)C)NC(=O)[C@H](CC3CCCCC3)NC(=O)[C@H](CCN)NC(=O)[C@@H](CC(C)C)NC(=O)[C@H](CCCN)NC(=O)[C@H](CCC(=O)O)NC(=O)[C@H](Cc3ccc(-c4ccccc4)cc3)NC(=O)[C@H](C(C)C)NC2=O)c1 [Compound 1044] ({CH2CO}-[Dap]Y(Carboxymethyl)D[Phe(3-Me)]V[Bip]E[Orn][dL][Dab][Cha]VTCAE[Aun]-OH; thioether N-14)
8 | 18.3 nM | Cc1cccc(C[C@@H]2NC(=O)[C@H](CC(=O)O)NC(=O)[C@H](Cc3ccc(OCC(=O)O)cc3)NC(=O)[C@H](CN)NC(=O)CSC[C@@H](C(=O)N[C@@H](CC(=O)O)C(=O)NCCCCCCCCCCC(=O)O)NC(=O)[C@H]([C@@H](C)O)NC(=O)[C@H](C(C)C)NC(=O)[C@H](CC3CCCCC3)NC(=O)[C@H](CCN)NC(=O)[C@@H](CC(C)C)NC(=O)[C@H](CCCN)NC(=O)[C@H](CCC(=O)O)NC(=O)[C@H](Cc3ccc(-c4ccccc4)cc3)NC(=O)[C@H](C(C)C)NC2=O)c1 [Compound 1048] ({CH2CO}-[Dap]Y(Carboxymethyl)D[Phe(3-Me)]V[Bip]E[Orn][dL][Dab][Cha]VTCD[Aun]-OH; thioether N-14)
9 | 8.9 nM | Cc1cccc(C[C@@H]2NC(=O)[C@H](CC(=O)O)NC(=O)[C@H](Cc3ccc(OCC(=O)O)cc3)NC(=O)[C@H](CN)NC(=O)CSC[C@@H](C(=O)N[C@@H](C)C(=O)N[C@@H](CN)C(=O)NCC(=O)NCCCCCCCCCCC(=O)O)NC(=O)[C@H]([C@@H](C)O)NC(=O)[C@H](C(C)C)NC(=O)[C@H](CC3CCCCC3)NC(=O)[C@H](CCN)NC(=O)[C@@H](CC(C)C)NC(=O)[C@H](CCCN)NC(=O)[C@H](CCCNC(N)=O)NC(=O)[C@H](Cc3ccc(-c4ccccc4)cc3)NC(=O)[C@H](C(C)C)NC2=O)c1 [Compound 1053] ({CH2CO}-[Dap]Y(Carboxymethyl)D[Phe(3-Me)]V[Bip][Cit][Orn][dL][Dab][Cha]VTCA[Dap]G[Aun]-OH; thioether N-14)
10 | 31.3 nM | Cc1cccc(C[C@@H]2NC(=O)[C@H](CC(=O)O)NC(=O)[C@H](Cc3ccc(OCC(=O)O)cc3)NC(=O)[C@H](Cc3ccc(OCC(=O)O)cc3)NC(=O)CSC[C@@H](C(=O)NCC(=O)N[C@@H](CCN)C(=O)NCCCCCCCCCCC(=O)O)NC(=O)[C@H](CO)NC(=O)[C@H](C(C)C)NC(=O)[C@H](CC3CCCCC3)NC(=O)[C@H](CCN)NC(=O)[C@@H](CC(C)C)NC(=O)[C@H](CCCN)NC(=O)[C@H](C(C)C)NC(=O)[C@H](Cc3ccc(-c4ccccc4)cc3)NC(=O)[C@H](CC(C)C)NC2=O)c1 [Compound 1054] ({CH2CO}-Y(Carboxymethyl)Y(Carboxymethyl)D[Phe(3-Me)]L[Bip]V[Orn][dL][Dab][Cha]VSCG[Dab][Aun]-OH; thioether N-14)

Reference: patent publication US20260022142A1, “MACROCYCLIC IMMUNOMODULATORS” (Bristol-Myers Squibb Company, priority 2022, published 2026)
